From patent US9567319B2, “Compound having higher inhibitory activity on protein kinase G and preparation method thereof” (Jenkem Technology Co., Ltd., (Tianjin), priority 2014, dated 2017)
In brackets after ≈: the same amount, converted by molar mass. Several values for one entry are separate records, joined by “and”; a condition that tells them apart may be missing. Equal entries are not always repeated.

How the values were obtained:
[1] = test system: hyperalgesia induced by Freund's complete adjuvant (CFA) in rats; assay: Weight bearing test, CFA induced hyperalgesia in rats; type: in vivo, SD rats; conditions: for Weight Bearing Test Values (Mean ± SD), Baseline: pretreatment, n=8; for Weight Bearing Test Values (Mean ± SD), 15 min: 15 min post treatment; for Weight Bearing Test Values (Mean ± SD), 2 h: 2 h post treatment
Protocol: Compounds 46 and JK-02A were prepared according to the disclosure of US patent application No. US2008/0176920, and compound JK-02H was prepared according to Example 1. A repeat efficacy study was carried out on the same batch of animals with a single-dose treatment followed by a washing-out period. The 14 days in life studies included two stages: a single low dose treatment assessment on the 7th day and then a single high dose treatment test on the 14th day after CFA injection. On the 7th day after CFA injection, the rats were randomly assigned to respective groups using a computer generated randomization procedure based on the body weight and the baseline values of Von Frey and weight bearing test. Animals received corresponding single dose treatments (vehicle and 3 test articles) on the 7th and 14th days after CFA injection, respectively, and the effect of the test compounds were evaluated. Hyperalgesia of all the study animals was assessed following a single low dose treatment with the test articles on day 7, while a single high dose effect of the test article was evaluated on day 14. The mechanical hyperalgesia and weight bearing were measured on day 7 and day 14 after CFA injection, followed by administration of control or test articles. Von Frey filaments and weight bearing were measured on all the study animals at three time points on day 7, and four time points on day 14. An extra time point assessment was conducted on day 14, considering the strong analgesic effect of the test articles at a higher dose noticed during the test at the 3th time point. Rats distributed body weight unequally on the CFA-injected and contra lateral paws, which was measured by a weight balance changing instrument (Bio-medical, USA). The animals were tested in a box constructed to register the weight load exerted by the hind paws by means of force plates inserted in the floor. The mean weight bearing (unit in “g”) between the CFA-injected paw and the contra-lateral paw was determined in 10 seconds. The weight bearing test of all study animals was conducted at the same time intervals as the mechanical hyperalgesia test. All the results were expressed as mean±SD. One-way analysis of variance (ANOVA) followed by a multiple comparison test were applied among the groups, p<0.05 accepted as significant.

[2] = Test of water solubility of the compounds
Protocol: At room temperature, about 0.1 g of each sample to be tested (solid materials should be ground as powder) was added to a 10 mL cylinder with a ground glass stopper. Water was gradually added. After each addition of 0.5 mL water, the resulting solution was stirred for 10 min for mixing, and was then visually examined for the presence of any undissolved sample. If there still exists undissolved sample or undissolved portions of the sample after 10 mL water was added, the test would be continued in a 100 mL cylinder.

[3] = day 7 after CFA, single low dose i.v. (46 and JK-02A 10 mg/kg, JK-02H 5 mg/kg)
[4] = day 14 after CFA, single high dose i.v. (46 and JK-02A 40 mg/kg, JK-02H 20 mg/kg)
[5] = individual animal, high dose i.v. (46 and JK-02A 40 mg/kg, JK-02H 20 mg/kg)
[6] = individual animal, low dose i.v. (46 and JK-02A 10 mg/kg, JK-02H 5 mg/kg)

In the case of `CCCOc1ccc(O)c(F)c1C(=O)c1ccc(C(=O)N[C@@H]2CNC[C@H]2NC(=O)c2ccc3cn[nH]c3c2)cc1` [compound 46], the “Weight Bearing Test Values (Mean ± SD), Baseline” value ([1]; day 7 after CFA, low dose groups (46 and JK-02A 10 mg/kg, JK-02H 5 mg/kg)) is reported as 48.54 ± 7.73 g, the “Weight Bearing Test Values (Mean ± SD), 15 min” value [1, 3] is reported as 44.76 ± 8.54 g and the “Weight Bearing Test Values (Mean ± SD), 2 h” value [1, 3] is reported as 41.09 ± 8.58 g. The “Weight Bearing Test Values (Mean ± SD), Baseline” value ([1]; day 14 after CFA, high dose groups (46 and JK-02A 40 mg/kg, JK-02H 20 mg/kg)) was 46.73 ± 5.58 g, the “Weight Bearing Test Values (Mean ± SD), 15 min” value [1, 4] was 34.03 ± 5.67 g and the “Weight Bearing Test Values (Mean ± SD), 2 h” value [1, 4] was 44.46 ± 11.29 g. The “Weight Bearing Test Values (Mean ± SD), 5 h” value ([1]; day 14 after CFA, single high dose i.v. (46 and JK-02A 40 mg/kg, JK-02H 20 mg/kg), 5 h post treatment) was 41.06 ± 6.98 g, the “Weight Bearing Values of Individual Animal, Day 14, 15 min, Left” value [1, 5] was 62.4 g and 64.0 g and 61.5 g and 63.7 g and 59.2 g and 39.7 g and 52.6 g and 68.4 g and the “Weight Bearing Values of Individual Animal, Day 14, 15 min, Right” value [1, 5] was 96.4 g and 104.7 g and 95.1 g and 95.7 g and 96.9 g and 71.9 g and 75.2 g and 107.8 g. For the same molecule, the “Weight Bearing Values of Individual Animal, Day 14, 15 min, Δ” value [1, 5] was 34.0 g and 40.7 g and 33.6 g and 32.0 g and 37.7 g and 32.2 g and 22.6 g and 39.4 g, the “Weight Bearing Values of Individual Animal, Day 14, 2 h, Left” value [1, 5] was 59.9 g and 68.1 g and 65.7 g and 44.8 g and 56.2 g and 36.9 g and 65.4 g and 67.0 g and the “Weight Bearing Values of Individual Animal, Day 14, 2 h, Right” value [1, 5] was 107.1 g and 101.0 g and 112.2 g and 110.9 g and 98.5 g and 87.3 g and 94.8 g and 107.9 g. For the same molecule, the “Weight Bearing Values of Individual Animal, Day 14, 2 h, Δ” value [1, 5] was 47.2 g and 32.9 g and 46.5 g and 66.1 g and 42.3 g and 50.4 g and 29.4 g and 40.9 g, the “Weight Bearing Values of Individual Animal, Day 14, 5 h, Left” value [1, 5] was 55.9 g and 34.5 g and 56.8 g and 58.2 g and 47.3 g and 31.3 g and 41.6 g and 73.0 g and the “Weight Bearing Values of Individual Animal, Day 14, 5 h, Right” value [1, 5] was 102.4 g and 85.3 g and 101.8 g and 88.4 g and 90.0 g and 66.5 g and 76.3 g and 116.4 g. For the same molecule, the “Weight Bearing Values of Individual Animal, Day 14, 5 h, Δ” value [1, 5] was 46.5 g and 50.8 g and 45.0 g and 30.2 g and 42.7 g and 35.2 g and 34.7 g and 43.4 g, the “Weight Bearing Values of Individual Animal, Day 7, 15 min, Left” value [1, 6] was 47.4 g and 40.2 g and 67.4 g and 60.4 g and 40.3 g and 39.0 g and 24.3 g and 58.1 g and the “Weight Bearing Values of Individual Animal, Day 7, 15 min, Right” value [1, 6] was 93.5 g and 94.1 g and 110.9 g and 89.1 g and 91.2 g and 81.7 g and 62.7 g and 112.0 g. The “Weight Bearing Values of Individual Animal, Day 7, 15 min, Δ” value [1, 6] was 46.1 g and 53.9 g (2×) and 43.5 g and 28.7 g and 50.9 g and 42.7 g and 38.4 g, the “Weight Bearing Values of Individual Animal, Day 7, 2 h, Left” value [1, 6] was 48.5 g and 39.0 g and 65.0 g and 66.3 g and 48.4 g and 43.4 g and 38.0 g and 54.8 g and the “Weight Bearing Values of Individual Animal, Day 7, 2 h, Right” value [1, 6] was 91.5 g and 81.8 g and 102.9 g and 97.7 g and 80.7 g and 82.3 g and 81.5 g and 113.7 g. The “Weight Bearing Values of Individual Animal, Day 7, 2 h, Δ” value [1, 6] was 43.0 g and 42.8 g and 37.9 g and 31.4 g and 32.3 g and 38.9 g and 43.5 g and 58.9 g, the “First Baseline, Balance Left, individual animal” value ([1]; individual animal, pretreatment day 7, left (CFA-injected) hind paw) was 31.3 g and 27.8 g and 41.8 g and 63.2 g and 73.9 g and 49.6 g and 33.9 g and 60.4 g and the “First Baseline, Balance Right, individual animal” value ([1]; individual animal, pretreatment day 7, right hind paw) was 83.6 g and 87.0 g and 91.8 g and 105.0 g and 114.0 g and 102.9 g and 71.5 g and 114.4 g. For the same molecule, the “First Baseline, Balance Δ, individual animal” value ([1]; individual animal, pretreatment day 7, right minus left) was 52.3 g and 59.2 g and 50.0 g and 41.8 g and 40.1 g and 53.3 g and 37.6 g and 54.0 g, the “Second Baseline, Balance Left, individual animal” value ([1]; individual animal, pretreatment day 14, left (CFA-injected) hind paw) was 61.3 g and 45.0 g and 70.0 g and 51.2 g and 34.7 g and 24.8 g and 43.5 g and 65.5 g and the “Second Baseline, Balance Right, individual animal” value ([1]; individual animal, pretreatment day 14, right hind paw) was 115.3 g and 95.2 g and 119.5 g and 104.5 g and 76.6 g and 67.1 g and 84.3 g and 107.3 g. The “Second Baseline, Balance Δ, individual animal” value ([1]; individual animal, pretreatment day 14, right minus left) was 54.0 g and 50.2 g and 49.5 g and 53.3 g and 41.9 g and 42.3 g and 40.8 g and 41.8 g, the “Volume of added water” value ([2]; about 0.1 g sample, room temperature, water added until dissolved) was 66.5 mL and the solubility ([2]; water, thermodynamic from solid) was 1500 µg/mL (≈ 2750 µM).
